Laboratory results from patent publication US7531356B2, “Promoter sequences for corticotropin releasing-factor receptor CRF2α and method of identifying agents that alter the activity of the promoter sequences” (Wisconsin Alumni Research Foundation, priority 2000, dated 2009).
Ends that are not written are not given here.

Experiments:
[1] = system: full-length CRF2α receptor promoter (−3898 construct); experiment: Luciferase reporter expression from the full-length (−3898) CRF2α receptor promoter construct in transfected A7R5 cultures; assay type: cell-based, human; conditions: for effect of antagonist on CRF or urocortin induced reduction in expression from the full length promoter: antagonist 1 μM plus CRF or urocortin 1 μM; for change in expression from the −3898 construct compared to untreated control cultures: agonist 1 μM alone, p<0.001
Experimental: (§1) In one embodiment, the present invention is a transfected cell line. One preferred method of creating such a cell line is described as follows: The constructs described above containing the human or rat promoter fragments placed upstream of the firefly luciferase gene are used to transfect immortalized cell lines. The constructs are transfected into CHO-K1 and A7R5 cell lines using lipofectamine 2000 (Life Technologies, Rockville, Md.). […] Both cell lines can be maintained at 37° C. with 5% CO2 in DMEM supplemented with 10% fetal bovine serum. Primary cultures of the central nervous system, as well as additional immortalized cell lines, are also appropriate for these transfections. To control for transfection efficiency, the cells are also co-transfected with the pRL-TK vector (Promega, Madison, Wis.). The pRL-TK vector contains the Renilla luciferase gene downstream of the herpes simplex virus thymidine kinase promoter, a promoter which provides low to moderate levels of expression. Cell lysates are assayed for total protein using the BCA assay (Pierce, Rockford, Ill.) to standardize for the protein extraction. The level of reporter gene expression from a standardized amount of cell extract is quantified by measuring luciferase activity using a luminometer (EG&G Wallac, Gaithersburg, Md.) and the dual-luciferase reporter assay system (Promega, Madison, Wis.). Firefly luciferase activity reflects CRF2α receptor promoter activity and Renilla luciferase activity is used to normalize data between experiments.
Using a similar experimental paradigm, we treated A7R5 cultures to determine what agents may alter expression from the CRF2α promoter. In addition to treating the cultures with CRF and urocortin (1 μM each), A7R5 cultures also were treated with either of the antagonists alone D-Phe or DMP696 (1 μM each), CRF plus D-Phe (1 μM each), CRF plus DMP696 (1 μM each), urocortin plus D-Phe (1 μM each), and with urocortin plus DMP696 (1 μM each). D-Phe is a non-selective CRF receptor antagonist, blocking both CRF1 and CRF2 receptors, whereas DMP696 is specific to CRF1 receptors. A7R5 cultures are known to express CRF2 receptors and should be a highly appropriate cell type to monitor CRF2α receptor expression.
In a separate experiment the effects of forskolin and dexamethasone were compared to DMSO control A7R5 cultures. […] These findings are consistent with those seen in the CHO-K1 cultures.

[2] = system: full-length CRF2α receptor promoter (−3898 construct); experiment: Luciferase reporter expression from the full-length (−3898) CRF2α receptor promoter construct in transfected CHO-K1 cultures; assay type: cell-based, human; conditions: CHO-K1, −3898 construct, forskolin 10 μM without IBMX, 24 hours; for change in expression from the full-length CRF2α promoter compared with control cultures: CRF, urocortin, dexamethasone 1 μM, vs untreated (CRF, urocortin) or DMSO control
Experimental: as §1
A stated goal for the constructs is the ability to identify agents that can alter expression of the CRF2α gene. […] Using methods previously described in this application, CHO-K1 cultures were transfected with the −3898 construct and the pRL-TK internal control construct. These cultures were then treated with either CRF (1 μM), urocortin (1 μM), dexamethasone (1 μM), forskolin (10 μM), or the appropriate control at the time of transfection. […]

Row | Molecule | effect of antagonist on CRF or urocortin induced reduction in expression from the full length promoter [1] | mean expression (firefly luciferase activity normalized to Renilla luciferase) ([2]; DMSO control mean 0.411±0.004, p<0.001) | change in expression from the full-length CRF2α promoter compared with control cultures [2] | change in expression from the −3898 construct compared to untreated control cultures [1]
1 | COCC(COC)Nc1nc(C)nc2c(-c3ccc(Cl)cc3Cl)c(C)nn12 [DMP696] | did not affect either the CRF or urocortin induced reduction in expression |  |  | 
2 | C=C[C@@]1(C)CC(=O)[C@]2(O)[C@@]3(C)[C@@H](O)CCC(C)(C)[C@@H]3[C@H](O)[C@H](OC(C)=O)[C@@]2(C)O1 [forskolin] |  | 0.302±0.012 |  | 
3 | CRF: hormone and neurotransmitter; ligand for the CRF receptors |  |  | did not significantly change expression | significantly decrease expression
4 | D-Phe | brought expression from the full length promoter back to the levels seen in the untreated controls |  |  | 
5 | urocortin: neurotransmitter similar to CRF; ligand for the CRF receptors (DNPSLSIDLTFHLLRTLLELARTQSQRERAEQNRIIFDSV; ends and bridges not checked; UniProt P55089 83-122, looked up) |  |  | did not significantly change expression | significantly decrease expression
